Laboratory results as given in patent publication US7915292B2, “Antibacterial quinoline derivatives” (Janssen Pharmaceutica NV, priority 2005, dated 2011).
Values after ≈ are worked out from the molar mass of the structure shown.

Assays:
LMO 49594 = test: Microtitre plate assay, IC90 determination, LMO 49594; type: cell-based, Listeria monocytogenes; conditions: Listeria monocytogenes; 90% inhibitory concentration for bacterial growth; strain LMO 49594; 24 hours at 37° C.; read-out: IC90 (μg/ml) LMO 49594
Protocol: (§1) Stocks (0.5 ml/tube) were stored at -70° C. until use. Bacteria titrations were performed in microtiter plates to detect the TCID50, in which the TCID50 represents the dilution that gives rise to bacterial growth in 50% of inoculated cultures. In general, an inoculum level of approximately 100 TCID50 was used for susceptibility testing. […] Serial five-fold dilutions (45 μl in 180 μl) were made directly in the microtiter plates from column 2 to reach column 11. Untreated control samples with (column 1) and without (column 12) inoculum were included in each microtiter plate. Depending on the bacteria type, approximately 10 to 60 CFU per well of bacteria inoculum (100 TCID50), in a volume of 100 μl in 2.8× Mueller-Hinton broth medium, was added to the rows […]. The same volume of broth medium without inoculum was added to column 12 in row A to H. The cultures were incubated at 37° C. for 24 hours under a normal atmosphere (incubator with open air valve and continuous ventilation). At the end of incubation, one day after inoculation, the bacterial growth was quantitated fluorometrically. Therefore resazurin (0.6 mg/ml) was added in a volume of 20 μl to all wells 3 hours after inoculation, and the plates were re-incubated overnight. A change in colour from blue to pink indicated the growth of bacteria. The fluorescence was read in a computer-controlled fluorometer (Cytofluor Biosearch) at an excitation wavelength of 530 nm and an emission wavelength of 590 nm. The % growth inhibition achieved by the compounds was calculated according to standard methods. The IC90 (expressed in μg/ml) was defined as the 90% inhibitory concentration for bacterial growth.

STA 25923 = test: Microtitre plate assay, IC90 determination, STA 25923; type: cell-based, S. aureus; conditions: Staphylococcus aureus; 90% inhibitory concentration for bacterial growth; strain STA 25923; 24 hours at 37° C.; read-out: IC90 (μg/ml) STA 25923
Protocol: as §1

STA 29213 = test: Microtitre plate assay, IC90 determination, STA 29213; type: cell-based, S. aureus; conditions: Staphylococcus aureus; 90% inhibitory concentration for bacterial growth; strain STA 29213; 24 hours at 37° C.; read-out: IC90 (μg/ml) STA 29213
Protocol: as §1

SMU 33402 = test: Microtitre plate assay, IC90 determination, SMU 33402; type: cell-based, S. mutans; conditions: Streptococcus mutans; 90% inhibitory concentration for bacterial growth; strain SMU 33402; 24 hours at 37° C.; read-out: IC90 (μg/ml) SMU 33402
Protocol: as §1

M. Smegmatis ATCC607 = test: In-vitro anti-bacterial activity against strain M. smegmatis ATCC607 (Alamar Blue growth inhibition); type: cell-based; conditions: Mycolicibacterium smegmatis, 48 hours incubation, read-out: M. smegmatis pIC50 (converted)
Procedure, shortened: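 Five-fold serial compound dilutions were inoculated with about 250 CFU/well in Mueller-Hinton broth and incubated 48 h at 37° C under 5% CO2. Growth was read by Alamar Blue fluorescence (ex 530/em 590 nm) after a further 2 h. Percent growth inhibition was expressed as pIC50.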

STA 43300 = test: Microtitre plate assay, IC90 determination, STA 43300; type: cell-based, S. aureus; conditions: Staphylococcus aureus; 90% inhibitory concentration for bacterial growth; strain STA 43300; 24 hours at 37° C.; read-out: IC90 (μg/ml) STA 43300
Protocol: as §1, with “Therefore resazurin (0.6 mg/ml) was added in a volume of 20 μl to all wells 3 hours after inoculation, and the plates were re-incubated overnight. A change in colour from blue to pink indicated the growth of bacteria.” left out, “The IC90 (expressed in μg/ml) was defined as the 90% inhibitory concentration for bacterial growth.” left out

BSU 43639 = test: Microtitre plate assay, IC90 determination, BSU 43639; type: cell-based, Bacillus subtilis; conditions: Bacillus subtilis; 90% inhibitory concentration for bacterial growth; strain BSU 43639; 24 hours at 37° C.; read-out: IC90 (μg/ml) BSU 43639
Protocol: as §1

ECO 25922 = test: Microtitre plate assay, IC90 determination, ECO 25922; type: cell-based, E. coli; conditions: Escherichia coli; 90% inhibitory concentration for bacterial growth; strain ECO 25922; 24 hours at 37° C.; read-out: IC90 (μg/ml) ECO 25922
Protocol: as §1

EFA 29212 = test: Microtitre plate assay, IC90 determination, EFA 29212; type: cell-based, E. faecalis; conditions: Enterococcus faecalis; 90% inhibitory concentration for bacterial growth; strain EFA 29212; 24 hours at 37° C.; read-out: IC90 (μg/ml) EFA 29212
Protocol: as §1

| SMILES | IC90 (LMO 49594) | IC90 (STA 25923) | IC90 (STA 29213) | IC90 (SMU 33402) | IC50 (M. Smegmatis ATCC607) | IC90 (STA 43300) | IC90 (BSU 43639) | IC90 (ECO 25922) | IC90 (EFA 29212) |
| --- | --- | --- | --- | --- | --- | --- | --- | --- | --- |
| Cc1ccc2nc(-c3ccccc3)c(C(c3ccccc3)N(CC(=O)N3CCN(C)CC3)Cc3ccccc3)cc2c1 (stereo not drawn) [Compound 72] | 11.1 µg/mL (≈ 20 µM) | 11.1 µg/mL (≈ 20 µM) | 11.1 µg/mL (≈ 20 µM) | 13.9 µg/mL (≈ 25.1 µM) | 1.58 µM | 11.1 µg/mL (≈ 20 µM) | 8.8 µg/mL (≈ 15.9 µM) | 55.5 µg/mL (≈ 100 µM) |  |
| COc1nc2ccc(Br)cc2cc1C(c1ccccc1)N(CC(=O)N1CCN(C)CC1)Cc1cccc2ncccc12 (stereo not drawn) [Compound 114] | 49.6 µg/mL (≈ 79.4 µM) |  | 12.5 µg/mL (≈ 20 µM) | 15.7 µg/mL (≈ 25.1 µM) | 20 µM | 12.5 µg/mL (≈ 20 µM) |  | 62.5 µg/mL (≈ 100 µM) | 12.5 µg/mL (≈ 20 µM) |
